Targets include Motilin receptor (Homo sapiens, UniProt O43193); D(1A) dopamine receptor (Homo sapiens, UniProt P21728); Vasopressin V1a receptor (Homo sapiens, UniProt P37288); Cannabinoid receptor 1 (Homo sapiens, UniProt P21554).
Experiment [1] deals with T1, Equilibrative nucleoside transporter 1 (Homo sapiens, UniProt Q99808).
T1 sequence (Q99808 whole entry): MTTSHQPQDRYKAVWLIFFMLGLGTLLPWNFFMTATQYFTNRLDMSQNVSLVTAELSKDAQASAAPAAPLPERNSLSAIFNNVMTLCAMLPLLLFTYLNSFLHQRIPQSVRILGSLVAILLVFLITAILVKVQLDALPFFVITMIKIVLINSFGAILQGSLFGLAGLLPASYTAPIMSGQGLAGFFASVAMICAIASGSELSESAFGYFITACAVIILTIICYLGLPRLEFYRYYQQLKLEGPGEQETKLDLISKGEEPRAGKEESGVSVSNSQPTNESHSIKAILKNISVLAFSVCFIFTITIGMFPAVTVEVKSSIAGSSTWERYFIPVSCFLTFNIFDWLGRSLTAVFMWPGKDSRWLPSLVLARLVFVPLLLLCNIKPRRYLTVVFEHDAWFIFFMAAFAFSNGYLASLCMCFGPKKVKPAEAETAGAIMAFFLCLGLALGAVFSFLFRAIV

Experiment [2] deals with T2, Cholecystokinin receptor type A (Homo sapiens, UniProt P32238).
T2 sequence (P32238 whole entry): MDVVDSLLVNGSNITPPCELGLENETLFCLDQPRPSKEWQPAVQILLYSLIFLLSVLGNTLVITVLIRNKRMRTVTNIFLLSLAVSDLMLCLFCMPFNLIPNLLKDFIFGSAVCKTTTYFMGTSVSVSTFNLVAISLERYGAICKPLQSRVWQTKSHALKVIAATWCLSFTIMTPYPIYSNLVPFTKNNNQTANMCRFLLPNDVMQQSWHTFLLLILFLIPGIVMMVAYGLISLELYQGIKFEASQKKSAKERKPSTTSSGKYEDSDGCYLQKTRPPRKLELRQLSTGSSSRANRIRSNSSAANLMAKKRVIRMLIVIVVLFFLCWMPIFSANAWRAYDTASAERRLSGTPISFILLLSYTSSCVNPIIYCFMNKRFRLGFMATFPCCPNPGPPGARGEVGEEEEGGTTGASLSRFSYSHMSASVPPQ

For experiment [3], the target named is Growth hormone secretagogue receptor type 1 (Homo sapiens, UniProt Q92847).
Experiment [4] concerns the target Neuronal acetylcholine receptor subunit alpha-4 (Homo sapiens, UniProt P43681).
Another experiment has as its target T3, Endothelin-1 receptor (Homo sapiens, UniProt P25101).
T3 sequence (P25101 whole entry): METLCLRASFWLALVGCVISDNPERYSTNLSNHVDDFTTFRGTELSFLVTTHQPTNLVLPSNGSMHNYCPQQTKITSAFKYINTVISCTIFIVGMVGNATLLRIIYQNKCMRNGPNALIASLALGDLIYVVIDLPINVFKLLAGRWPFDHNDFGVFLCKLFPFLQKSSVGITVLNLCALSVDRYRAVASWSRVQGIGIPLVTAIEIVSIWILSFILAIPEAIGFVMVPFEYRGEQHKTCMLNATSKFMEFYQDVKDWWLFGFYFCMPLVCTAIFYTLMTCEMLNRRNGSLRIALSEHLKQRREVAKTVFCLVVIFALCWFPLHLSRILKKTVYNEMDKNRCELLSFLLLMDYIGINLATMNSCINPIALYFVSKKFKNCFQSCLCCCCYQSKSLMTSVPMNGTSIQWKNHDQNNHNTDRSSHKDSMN

The target of experiment [5] is T4, Mu-type opioid receptor (Homo sapiens, UniProt P35372). The experiment in a line: biochemical. It is filed as functional.
A further experiment has as its target T5, Thromboxane A2 receptor (Homo sapiens, UniProt P21731).
T5 sequence (P21731 whole entry): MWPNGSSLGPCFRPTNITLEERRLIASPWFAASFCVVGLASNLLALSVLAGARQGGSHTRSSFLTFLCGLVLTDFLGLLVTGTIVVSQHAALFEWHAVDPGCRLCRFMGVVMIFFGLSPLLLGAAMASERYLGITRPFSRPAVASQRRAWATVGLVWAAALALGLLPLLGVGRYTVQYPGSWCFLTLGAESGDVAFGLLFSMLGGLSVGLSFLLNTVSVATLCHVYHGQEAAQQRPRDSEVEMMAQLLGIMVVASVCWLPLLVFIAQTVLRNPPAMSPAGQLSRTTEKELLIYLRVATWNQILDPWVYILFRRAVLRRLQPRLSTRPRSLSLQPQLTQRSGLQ

The target in experiment [6] is Voltage-dependent L-type calcium channel subunit alpha-1C (Rattus norvegicus, UniProt P22002). The class given is functional.
In experiment [7] the target is T6, Adenosine receptor A1 (Homo sapiens, UniProt P30542).
T6 sequence (P30542 whole entry): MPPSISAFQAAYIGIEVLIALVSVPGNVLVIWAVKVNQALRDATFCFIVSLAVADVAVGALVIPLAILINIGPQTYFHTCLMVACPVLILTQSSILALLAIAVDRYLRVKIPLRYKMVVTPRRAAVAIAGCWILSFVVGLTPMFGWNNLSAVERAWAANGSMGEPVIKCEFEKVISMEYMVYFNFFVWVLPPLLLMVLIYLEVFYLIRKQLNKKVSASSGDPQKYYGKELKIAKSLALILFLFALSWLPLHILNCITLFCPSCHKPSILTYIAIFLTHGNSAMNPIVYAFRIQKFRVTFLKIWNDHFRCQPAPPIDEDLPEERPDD

Experiment [8] addresses T6, Adenosine receptor A1. The source holds these as a separate data set.
The target of experiment [9] is T4, Mu-type opioid receptor.

Molecules are shown by their SMILES. Some results are limits rather than exact numbers.
Further: assay procedure not described here.

Sequence of Growth hormone secretagogue receptor type 1 (Q92847 whole entry): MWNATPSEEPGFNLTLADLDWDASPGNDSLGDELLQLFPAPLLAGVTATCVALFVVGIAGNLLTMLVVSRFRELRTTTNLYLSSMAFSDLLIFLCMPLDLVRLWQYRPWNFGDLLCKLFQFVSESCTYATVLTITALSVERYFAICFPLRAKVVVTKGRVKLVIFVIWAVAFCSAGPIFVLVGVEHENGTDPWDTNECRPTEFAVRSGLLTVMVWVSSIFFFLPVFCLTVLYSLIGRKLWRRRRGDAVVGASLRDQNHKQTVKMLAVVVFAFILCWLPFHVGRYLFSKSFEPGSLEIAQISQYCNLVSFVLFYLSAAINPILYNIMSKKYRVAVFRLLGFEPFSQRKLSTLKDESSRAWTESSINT
Sequence of Vasopressin V1a receptor (P37288 whole entry): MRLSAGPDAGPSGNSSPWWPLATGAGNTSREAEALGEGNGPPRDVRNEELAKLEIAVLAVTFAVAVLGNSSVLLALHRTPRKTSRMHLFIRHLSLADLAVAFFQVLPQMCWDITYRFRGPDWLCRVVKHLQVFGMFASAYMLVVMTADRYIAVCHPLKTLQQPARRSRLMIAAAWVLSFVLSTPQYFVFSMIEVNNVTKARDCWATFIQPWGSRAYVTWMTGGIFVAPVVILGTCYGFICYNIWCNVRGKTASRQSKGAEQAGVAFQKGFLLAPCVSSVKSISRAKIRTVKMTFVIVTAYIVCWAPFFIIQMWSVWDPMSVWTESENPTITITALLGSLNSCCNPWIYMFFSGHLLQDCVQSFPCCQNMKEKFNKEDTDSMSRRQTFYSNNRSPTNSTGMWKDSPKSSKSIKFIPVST
Sequence of D(1A) dopamine receptor (P21728 whole entry): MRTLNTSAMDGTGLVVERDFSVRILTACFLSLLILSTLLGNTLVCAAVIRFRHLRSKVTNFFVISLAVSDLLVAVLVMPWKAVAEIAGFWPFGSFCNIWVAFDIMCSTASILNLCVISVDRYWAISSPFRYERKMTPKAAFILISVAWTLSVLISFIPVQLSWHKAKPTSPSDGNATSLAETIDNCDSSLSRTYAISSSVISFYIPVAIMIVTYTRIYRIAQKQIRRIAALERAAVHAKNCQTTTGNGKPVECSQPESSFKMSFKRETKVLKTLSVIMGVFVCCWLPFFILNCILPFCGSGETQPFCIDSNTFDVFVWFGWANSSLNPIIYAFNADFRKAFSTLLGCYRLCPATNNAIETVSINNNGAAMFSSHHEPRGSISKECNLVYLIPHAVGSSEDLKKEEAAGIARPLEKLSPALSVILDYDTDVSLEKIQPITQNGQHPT
T4 sequence (P35372 whole entry): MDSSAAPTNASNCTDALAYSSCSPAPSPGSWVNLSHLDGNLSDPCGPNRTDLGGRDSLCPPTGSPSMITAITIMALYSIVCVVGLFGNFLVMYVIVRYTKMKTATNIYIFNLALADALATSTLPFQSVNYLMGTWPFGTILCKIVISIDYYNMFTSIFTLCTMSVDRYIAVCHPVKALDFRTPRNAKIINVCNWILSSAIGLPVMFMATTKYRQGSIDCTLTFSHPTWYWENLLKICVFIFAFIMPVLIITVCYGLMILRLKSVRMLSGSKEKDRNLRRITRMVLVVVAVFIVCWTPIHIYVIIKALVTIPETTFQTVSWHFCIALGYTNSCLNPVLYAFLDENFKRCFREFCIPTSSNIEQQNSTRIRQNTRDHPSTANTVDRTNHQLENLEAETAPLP
Sequence of Motilin receptor (O43193 whole entry): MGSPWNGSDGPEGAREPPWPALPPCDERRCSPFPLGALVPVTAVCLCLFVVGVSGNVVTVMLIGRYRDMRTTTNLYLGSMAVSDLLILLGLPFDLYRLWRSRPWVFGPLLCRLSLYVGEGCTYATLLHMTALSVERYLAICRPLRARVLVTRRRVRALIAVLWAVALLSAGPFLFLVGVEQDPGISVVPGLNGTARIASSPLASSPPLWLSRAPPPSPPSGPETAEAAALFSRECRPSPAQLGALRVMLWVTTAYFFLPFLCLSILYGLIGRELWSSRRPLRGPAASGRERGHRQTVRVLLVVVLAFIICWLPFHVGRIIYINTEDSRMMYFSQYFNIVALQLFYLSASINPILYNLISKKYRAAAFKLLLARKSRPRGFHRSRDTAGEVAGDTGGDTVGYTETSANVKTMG
Sequence of Neuronal acetylcholine receptor subunit alpha-4 (P43681 whole entry): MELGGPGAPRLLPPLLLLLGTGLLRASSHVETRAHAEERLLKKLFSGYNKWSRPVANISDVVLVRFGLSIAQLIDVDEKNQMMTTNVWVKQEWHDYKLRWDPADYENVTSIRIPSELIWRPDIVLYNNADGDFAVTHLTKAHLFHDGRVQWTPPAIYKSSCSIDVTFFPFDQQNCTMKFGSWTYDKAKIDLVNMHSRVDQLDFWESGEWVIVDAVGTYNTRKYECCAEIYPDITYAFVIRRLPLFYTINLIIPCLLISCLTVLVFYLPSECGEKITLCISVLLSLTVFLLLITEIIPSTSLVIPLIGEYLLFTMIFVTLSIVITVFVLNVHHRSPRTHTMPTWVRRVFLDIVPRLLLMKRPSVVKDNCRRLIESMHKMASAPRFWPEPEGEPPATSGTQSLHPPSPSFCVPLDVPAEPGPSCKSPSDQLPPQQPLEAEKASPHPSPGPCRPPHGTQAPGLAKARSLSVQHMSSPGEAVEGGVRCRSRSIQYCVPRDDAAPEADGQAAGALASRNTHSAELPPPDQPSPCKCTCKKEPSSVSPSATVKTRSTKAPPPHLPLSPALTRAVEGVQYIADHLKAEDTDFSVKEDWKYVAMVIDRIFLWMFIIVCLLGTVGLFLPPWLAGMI
Sequence of Voltage-dependent L-type calcium channel subunit alpha-1C (P22002 whole entry): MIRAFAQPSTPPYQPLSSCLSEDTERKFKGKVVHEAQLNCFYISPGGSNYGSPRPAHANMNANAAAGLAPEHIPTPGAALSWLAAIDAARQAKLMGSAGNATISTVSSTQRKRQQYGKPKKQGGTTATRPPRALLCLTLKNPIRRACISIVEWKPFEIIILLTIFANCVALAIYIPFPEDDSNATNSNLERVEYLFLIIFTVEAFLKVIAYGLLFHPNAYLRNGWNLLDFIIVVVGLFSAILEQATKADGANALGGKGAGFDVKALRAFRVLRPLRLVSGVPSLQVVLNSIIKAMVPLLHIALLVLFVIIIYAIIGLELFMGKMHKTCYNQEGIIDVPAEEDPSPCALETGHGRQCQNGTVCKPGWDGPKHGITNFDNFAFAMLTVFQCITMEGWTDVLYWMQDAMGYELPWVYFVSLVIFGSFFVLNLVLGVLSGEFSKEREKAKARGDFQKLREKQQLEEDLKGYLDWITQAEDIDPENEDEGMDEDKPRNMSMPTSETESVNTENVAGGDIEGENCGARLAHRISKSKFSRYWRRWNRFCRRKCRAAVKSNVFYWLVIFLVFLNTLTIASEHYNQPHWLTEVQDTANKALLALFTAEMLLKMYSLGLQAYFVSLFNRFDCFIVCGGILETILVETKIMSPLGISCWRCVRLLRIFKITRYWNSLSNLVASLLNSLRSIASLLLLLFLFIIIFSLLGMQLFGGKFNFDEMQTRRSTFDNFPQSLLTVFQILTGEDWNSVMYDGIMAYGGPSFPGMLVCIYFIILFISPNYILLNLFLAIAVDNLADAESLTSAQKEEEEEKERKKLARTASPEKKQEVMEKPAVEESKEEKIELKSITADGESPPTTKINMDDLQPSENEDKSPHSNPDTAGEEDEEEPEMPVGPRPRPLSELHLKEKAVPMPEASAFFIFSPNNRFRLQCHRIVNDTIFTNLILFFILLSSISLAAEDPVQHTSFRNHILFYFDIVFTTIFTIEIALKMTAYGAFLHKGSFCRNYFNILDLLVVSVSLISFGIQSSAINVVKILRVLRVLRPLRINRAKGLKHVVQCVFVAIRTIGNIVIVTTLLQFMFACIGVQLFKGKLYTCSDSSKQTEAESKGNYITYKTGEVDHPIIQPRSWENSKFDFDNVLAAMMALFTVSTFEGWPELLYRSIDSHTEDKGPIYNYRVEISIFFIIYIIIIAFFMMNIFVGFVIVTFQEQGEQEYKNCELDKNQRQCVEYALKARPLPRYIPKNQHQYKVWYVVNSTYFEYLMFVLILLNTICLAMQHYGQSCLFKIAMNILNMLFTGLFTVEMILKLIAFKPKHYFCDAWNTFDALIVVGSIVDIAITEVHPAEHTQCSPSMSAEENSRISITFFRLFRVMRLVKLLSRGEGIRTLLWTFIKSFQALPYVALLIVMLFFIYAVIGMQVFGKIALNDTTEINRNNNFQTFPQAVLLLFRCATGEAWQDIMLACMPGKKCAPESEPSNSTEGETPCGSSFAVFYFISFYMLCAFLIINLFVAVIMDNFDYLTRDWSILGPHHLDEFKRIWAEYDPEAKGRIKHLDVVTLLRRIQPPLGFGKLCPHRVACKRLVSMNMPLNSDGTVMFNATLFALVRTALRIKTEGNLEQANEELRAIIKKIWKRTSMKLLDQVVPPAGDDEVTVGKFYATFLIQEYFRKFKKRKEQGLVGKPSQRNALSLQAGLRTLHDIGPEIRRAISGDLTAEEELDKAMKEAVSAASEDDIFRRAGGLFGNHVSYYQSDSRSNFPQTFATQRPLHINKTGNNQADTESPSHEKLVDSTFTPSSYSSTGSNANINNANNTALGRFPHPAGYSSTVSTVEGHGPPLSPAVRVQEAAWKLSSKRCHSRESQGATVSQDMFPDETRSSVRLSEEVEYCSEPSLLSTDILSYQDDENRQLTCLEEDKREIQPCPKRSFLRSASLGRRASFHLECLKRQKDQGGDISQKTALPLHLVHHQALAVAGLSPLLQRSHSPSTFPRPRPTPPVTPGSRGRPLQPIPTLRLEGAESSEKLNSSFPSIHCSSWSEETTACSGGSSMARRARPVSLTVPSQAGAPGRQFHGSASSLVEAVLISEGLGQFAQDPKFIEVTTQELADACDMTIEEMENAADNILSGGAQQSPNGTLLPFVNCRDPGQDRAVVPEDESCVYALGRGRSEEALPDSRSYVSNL

With `O=C(Cn1ccnc1[N+](=O)[O-])NCc1ccccc1` [BENZNIDAZOLE], the AC50 (at Motilin receptor; in [1]; in [2]; in [3]; at D(1A) dopamine receptor; in experiment [4]) was greater than 30 µM throughout. The AC50 (on Endothelin-1 receptor; on Mu-type opioid receptor [5]; at Thromboxane A2 receptor; in experiment [6]; at Vasopressin V1a receptor; at Adenosine receptor A1 [7]) was greater than 30 µM in each case. For the same molecule, at Adenosine receptor A1 [8], the concentration at half-maximal activity (AC50) was greater than 30 µM.
`Cn1cc[nH]c1=S` [METHIMAZOLE]: the half-maximal activity concentration (AC50) on D(1A) dopamine receptor and on Adenosine receptor A1 [8] was greater than 30 µM each time.
As to `NS(=O)(=O)c1cc2c(cc1Cl)NC(CC1CCCC1)NS2(=O)=O` (stereo unspecified) [CYCLOPENTHIAZIDE], the half-maximal activity concentration (AC50) at D(1A) dopamine receptor, at Mu-type opioid receptor [5] and at Adenosine receptor A1 [8] was greater than 30 µM in each case.
In the case of `COCC1=C(C(=O)OC(C)OC(=O)OC(C)C)N2C(=O)[C@@H](NC(=O)/C(=N\OC)c3csc(N)n3)[C@H]2SC1` (stereo partly specified) [CEFPODOXIME PROXETIL], the AC50 on D(1A) dopamine receptor, at Mu-type opioid receptor [5] and at Adenosine receptor A1 [8] was greater than 30 µM each time.
Regarding `Nc1nc(-n2cc(C(=O)O)c(=O)c3cc(F)c(N4CC(O)C4)c(Cl)c32)c(F)cc1F` [DELAFLOXACIN], the AC50 on D(1A) dopamine receptor and at Adenosine receptor A1 [8] was greater than 30 µM each time.
As to `CN1C(=O)N(C)C2C1N(C)C(=O)N2C` (stereo unspecified) [MEBICAR], the AC50 on D(1A) dopamine receptor and on Adenosine receptor A1 [8] was greater than 30 µM in each case.
As to `CC(C)=CCC1C(=O)N(c2ccccc2)N(c2ccccc2)C1=O` [FEPRAZONE], the AC50 on D(1A) dopamine receptor and at Adenosine receptor A1 [8] was greater than 30 µM throughout.
Consider `CC1=NN(c2ccccc2)C(=O)C1` [EDARAVONE], for which the AC50 on D(1A) dopamine receptor and on Adenosine receptor A1 [8] was greater than 30 µM throughout.
Take `O=C(O)c1cccc(-c2noc(-c3ccccc3F)n2)c1`: the half-maximal activity concentration (AC50) was greater than 30 µM at Mu-type opioid receptor [9], greater than 10 µM in [4], greater than 30 µM on Thromboxane A2 receptor and greater than 30 µM on Adenosine receptor A1 [8].
In the case of `O=C(O)CCn1c2c(c3ccccc31)C[C@H](NS(=O)(=O)c1ccc(F)cc1)CC2` [RAMATROBAN], the half-maximal activity concentration (AC50) on Motilin receptor is greater than 30 µM; in [1], greater than 30 µM; at Mu-type opioid receptor [9], greater than 30 µM; in [2] it was 24.8 µM; in [3], greater than 30 µM; in [4] it was greater than 30 µM. Also, the AC50 on Endothelin-1 receptor was greater than 10 µM; at Mu-type opioid receptor [5], greater than 30 µM; at Thromboxane A2 receptor, 0.0311 µM; in experiment [6], greater than 10 µM; on Vasopressin V1a receptor, greater than 30 µM; on Adenosine receptor A1 [7], greater than 30 µM. Also, the half-maximal activity concentration (AC50) is greater than 30 µM on Adenosine receptor A1 [8] and greater than 10 µM on Cannabinoid receptor 1.
In the case of `CC(=O)O[C@]1(C(C)=O)CC[C@H]2[C@@H]3C[C@H](C)C4=CC(=O)CC[C@]4(C)[C@H]3CC[C@@]21C` [MEDROXYPROGESTERONE ACETATE], the AC50 (at Motilin receptor; in experiment [1]; in experiment [2]; in experiment [3]; in experiment [4]; on Endothelin-1 receptor) was greater than 30 µM each time. Besides, the AC50 at Vasopressin V1a receptor, at Adenosine receptor A1 [7] and at Adenosine receptor A1 [8] was greater than 30 µM each time.
As for `N/N=c1/cc2c(n[nH]1)CCN(C(=O)c1ccccc1)C2` [ENDRALAZINE], the AC50 on D(1A) dopamine receptor, at Mu-type opioid receptor [5] and on Adenosine receptor A1 [8] was greater than 30 µM in each case.
For the molecule `CO/N=C(\C(=O)N[C@@H]1C(=O)N2C(C(=O)OCOC(=O)C(C)(C)C)=C(C)CS[C@H]12)c1csc(N)n1`, the AC50 on D(1A) dopamine receptor, at Mu-type opioid receptor [5] and on Adenosine receptor A1 [8] was greater than 30 µM in each case.
`NC(=O)c1cccc2cn(-c3ccc([C@@H]4CCCNC4)cc3)nc12` [NIRAPARIB]: the concentration at half-maximal activity (AC50) at D(1A) dopamine receptor and at Adenosine receptor A1 [8] was greater than 30 µM throughout.
Consider `Nc1ccc(/N=N/c2ccccc2)c(N)n1` [PHENAZOPYRIDINE], for which the half-maximal activity concentration (AC50) at D(1A) dopamine receptor is greater than 30 µM; on Adenosine receptor A1 [8], 13.1 µM.
